In the SangsterLogP compilation:

`O=C(O)CCCCO/N=C(/c1ccccc1)c1cccnn1` showed a logP of 0. In the case of `O=C(O)CCCO/N=C(/c1ccccc1)c1cccnn1`, the logP is reported as -0.27. For `O=C(O)CCCCCO/N=C(/c1ccccc1)c1ccnnc1`, the logP was 0.1. `O=C(O)CCCCCON=C(c1ccccc1)c1cnccn1` showed a logP of 0.23. Work on `O=C(O)CCCCCO/N=C(/c1ccccc1)c1cccnn1` yielded a logP of -0.01. Work on `O=C(O)CCCCO/N=C(/c1ccccc1)c1ccnnc1` yielded a logP of -0.33. `O=C(O)CCCO/N=C(/c1ccccc1)c1cnccn1` showed a logP of -0.53. In the case of `O=C(O)CCCO/N=C(\c1ccccc1)c1ccnnc1`, the logP is reported as -0.4. Work on `O=C(O)CCCCO/N=C(/c1ccccc1)c1cnccn1` yielded a logP of -0.23.
